Data published in the supplement of paper PMC11451515.

Key:
Details in all cases: 48 h
SEM cells [1] = assay: AUC of viability dose-response curve (% viability x log10 dose units); higher = less sensitive
How it was run: (§1)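 Library compounds in DMSO were applied for 48 h at 37°C at 11 threefold doses (47 μM to 0.79 nM) to medium-adapted leukemia cells in 1536-well plates holding 500 or 1000 cells/well. Luminescence from CellTiter-Glo One was normalised plate by plate against DMSO and cell-free wells. Area under the curve came from trapezoidal integration of a log-logistic fit, after scaling curves that rose above full viability and discarding those that failed quality control. The fit had four parameters and used log10 doses.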

NOMO1 [2] = assay: as above
How it was run: as §1

P12-Ichikawa [3] = assay: as above
How it was run: as §1

SEM cells [4] = assay: cell viability relative to DMSO control; higher = less cytotoxic
How it was run: (§2)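 Before seeding, each leukemia line was adapted for at least four passages in each medium. NOMO1 or SEM cells (500 cells/well) and P12-Ichikawa cells (1000 cells/well) went into 1536-well plates at 5 μl, then received library compounds in DMSO by pin dosing across 11 threefold concentrations, 47 μM to 0.79 nM. Readout was CellTiter-Glo One luminescence after 48 h at 37°C, and viability is given as a per-plate percentage of DMSO wells, with cell-free wells as background.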

NOMO1 [5] = assay: as above
How it was run: as §2

P12-Ichikawa [6] = assay: as above
How it was run: as §2

CC(C)(C)C(=O)Oc1ccc([S+](=O)([O-])Nc2ccccc2C(=O)NCC(=O)O)cc1
AUC of viability dose-response curve
Details	NOMO1 [2]	P12-Ichikawa [3]	SEM cells [1]
HPLM + 10% dialyzed FBS	428	416	465
RPMI 5 mM glucose + 10% FBS	437	423	436
RPMI 5 mM glucose + 10% dialyzed FBS	443	420	471

cell viability [%]
Details	NOMO1 [5]	P12-Ichikawa [6]	SEM cells [4]
HPLM + 10% dialyzed FBS, 0.000781 µM	115	113	107
HPLM + 10% dialyzed FBS, 0.00234 µM	106	114	106
HPLM + 10% dialyzed FBS, 0.00702 µM	139	113	111
HPLM + 10% dialyzed FBS, 0.0211 µM	122	111	109
HPLM + 10% dialyzed FBS, 0.0632 µM	117	117	116
HPLM + 10% dialyzed FBS, 0.19 µM	110	122	122
HPLM + 10% dialyzed FBS, 0.569 µM	109	116	74.3
HPLM + 10% dialyzed FBS, 1.71 µM	113	115	58.9
HPLM + 10% dialyzed FBS, 5.12 µM	129	111	123
HPLM + 10% dialyzed FBS, 15.4 µM	122	123	128
HPLM + 10% dialyzed FBS, 46.1 µM	134	133	124
RPMI 5 mM glucose + 10% FBS, 0.000781 µM	107	107	95.5
RPMI 5 mM glucose + 10% FBS, 0.00234 µM	102	106	93.9
RPMI 5 mM glucose + 10% FBS, 0.00702 µM	99.7	111	88.9
RPMI 5 mM glucose + 10% FBS, 0.0211 µM	98.4	106	92.8
RPMI 5 mM glucose + 10% FBS, 0.0632 µM	112	115	104
RPMI 5 mM glucose + 10% FBS, 0.19 µM	108	123	107
RPMI 5 mM glucose + 10% FBS, 0.569 µM	114	113	95.1
RPMI 5 mM glucose + 10% FBS, 1.71 µM	117	119	48.8
RPMI 5 mM glucose + 10% FBS, 5.12 µM	104	126	91.6
RPMI 5 mM glucose + 10% FBS, 15.4 µM	109	131	96.7
RPMI 5 mM glucose + 10% FBS, 46.1 µM	129	134	90.4
RPMI 5 mM glucose + 10% dialyzed FBS, 0.000781 µM	110	112	106
RPMI 5 mM glucose + 10% dialyzed FBS, 0.00234 µM	117	115	99.3
RPMI 5 mM glucose + 10% dialyzed FBS, 0.00702 µM	113	106	104
RPMI 5 mM glucose + 10% dialyzed FBS, 0.0211 µM	122	118	123
RPMI 5 mM glucose + 10% dialyzed FBS, 0.0632 µM	109	113	94.6
RPMI 5 mM glucose + 10% dialyzed FBS, 0.19 µM	122	117	116
RPMI 5 mM glucose + 10% dialyzed FBS, 0.569 µM	119	120	93.7
RPMI 5 mM glucose + 10% dialyzed FBS, 1.71 µM	116	121	50.6
RPMI 5 mM glucose + 10% dialyzed FBS, 5.12 µM	129	122	98.8
RPMI 5 mM glucose + 10% dialyzed FBS, 15.4 µM	131	132	109
RPMI 5 mM glucose + 10% dialyzed FBS, 46.1 µM	124	138	124

CCC1(c2ccc(N)cc2)CCC(=O)NC1=O (centres undefined)
AUC of viability dose-response curve
Details	NOMO1 [2]	P12-Ichikawa [3]	SEM cells [1]
HPLM + 10% dialyzed FBS	463	449	433
RPMI 5 mM glucose + 10% FBS	473	427	424
RPMI 5 mM glucose + 10% dialyzed FBS	465	434	401

cell viability [%]
Details	NOMO1 [5]	P12-Ichikawa [6]	SEM cells [4]
HPLM + 10% dialyzed FBS, 0.000781 µM	115	116	114
HPLM + 10% dialyzed FBS, 0.00234 µM	107	113	113
HPLM + 10% dialyzed FBS, 0.00702 µM	125	109	127
HPLM + 10% dialyzed FBS, 0.0211 µM	124	111	114
HPLM + 10% dialyzed FBS, 0.0632 µM	122	121	118
HPLM + 10% dialyzed FBS, 0.19 µM	119	110	114
HPLM + 10% dialyzed FBS, 0.569 µM	115	109	107
HPLM + 10% dialyzed FBS, 1.71 µM	110	98.2	55.3
HPLM + 10% dialyzed FBS, 5.12 µM	116	101	108
HPLM + 10% dialyzed FBS, 15.4 µM	93.9	96.7	95.1
HPLM + 10% dialyzed FBS, 46.1 µM	97.6	91.7	96.6
RPMI 5 mM glucose + 10% FBS, 0.000781 µM	106	125	–
RPMI 5 mM glucose + 10% FBS, 0.00234 µM	107	120	–
RPMI 5 mM glucose + 10% FBS, 0.00702 µM	116	120	–
RPMI 5 mM glucose + 10% FBS, 0.0211 µM	116	111	–
RPMI 5 mM glucose + 10% FBS, 0.0632 µM	102	110	–
RPMI 5 mM glucose + 10% FBS, 0.19 µM	117	115	–
RPMI 5 mM glucose + 10% FBS, 0.569 µM	103	114	–
RPMI 5 mM glucose + 10% FBS, 1.71 µM	104	98.9	–
RPMI 5 mM glucose + 10% FBS, 5.12 µM	123	102	–
RPMI 5 mM glucose + 10% FBS, 15.4 µM	110	109	–
RPMI 5 mM glucose + 10% FBS, 46.1 µM	99.7	106	–
RPMI 5 mM glucose + 10% dialyzed FBS, 0.000781 µM	114	115	–
RPMI 5 mM glucose + 10% dialyzed FBS, 0.00234 µM	111	116	–
RPMI 5 mM glucose + 10% dialyzed FBS, 0.00702 µM	116	114	–
RPMI 5 mM glucose + 10% dialyzed FBS, 0.0211 µM	117	116	–
RPMI 5 mM glucose + 10% dialyzed FBS, 0.0632 µM	118	109	–
RPMI 5 mM glucose + 10% dialyzed FBS, 0.19 µM	104	108	–
RPMI 5 mM glucose + 10% dialyzed FBS, 0.569 µM	107	104	–
RPMI 5 mM glucose + 10% dialyzed FBS, 1.71 µM	123	96.4	–
RPMI 5 mM glucose + 10% dialyzed FBS, 5.12 µM	102	93.6	–
RPMI 5 mM glucose + 10% dialyzed FBS, 15.4 µM	111	97.9	–
RPMI 5 mM glucose + 10% dialyzed FBS, 46.1 µM	111	88	–

Cc1nccn1CC1CCc2c(c3ccccc3n2C)C1=O (centres undefined)
AUC of viability dose-response curve
Details	NOMO1 [2]	P12-Ichikawa [3]	SEM cells [1]
HPLM + 10% dialyzed FBS	447	448	441
RPMI 5 mM glucose + 10% FBS	465	422	453
RPMI 5 mM glucose + 10% dialyzed FBS	462	462	429

cell viability [%]
Details	NOMO1 [5]	P12-Ichikawa [6]	SEM cells [4]
HPLM + 10% dialyzed FBS, 0.000781 µM	–	124	118
HPLM + 10% dialyzed FBS, 0.00234 µM	–	125	120
HPLM + 10% dialyzed FBS, 0.00702 µM	–	121	135
HPLM + 10% dialyzed FBS, 0.0211 µM	–	128	132
HPLM + 10% dialyzed FBS, 0.0632 µM	–	127	142
HPLM + 10% dialyzed FBS, 0.19 µM	–	127	120
HPLM + 10% dialyzed FBS, 0.569 µM	–	111	110
HPLM + 10% dialyzed FBS, 1.71 µM	–	106	117
HPLM + 10% dialyzed FBS, 5.12 µM	–	103	104
HPLM + 10% dialyzed FBS, 15.4 µM	–	112	116
HPLM + 10% dialyzed FBS, 46.1 µM	–	108	92
RPMI 5 mM glucose + 10% FBS, 0.000781 µM	115	–	121
RPMI 5 mM glucose + 10% FBS, 0.00234 µM	108	–	119
RPMI 5 mM glucose + 10% FBS, 0.00702 µM	114	–	127
RPMI 5 mM glucose + 10% FBS, 0.0211 µM	122	–	114
RPMI 5 mM glucose + 10% FBS, 0.0632 µM	105	–	115
RPMI 5 mM glucose + 10% FBS, 0.19 µM	105	–	105
RPMI 5 mM glucose + 10% FBS, 0.569 µM	111	–	127
RPMI 5 mM glucose + 10% FBS, 1.71 µM	111	–	104
RPMI 5 mM glucose + 10% FBS, 5.12 µM	108	–	108
RPMI 5 mM glucose + 10% FBS, 15.4 µM	112	–	109
RPMI 5 mM glucose + 10% FBS, 46.1 µM	105	–	85.4
RPMI 5 mM glucose + 10% dialyzed FBS, 0.000781 µM	113	115	–
RPMI 5 mM glucose + 10% dialyzed FBS, 0.00234 µM	116	124	–
RPMI 5 mM glucose + 10% dialyzed FBS, 0.00702 µM	115	124	–
RPMI 5 mM glucose + 10% dialyzed FBS, 0.0211 µM	121	125	–
RPMI 5 mM glucose + 10% dialyzed FBS, 0.0632 µM	118	126	–
RPMI 5 mM glucose + 10% dialyzed FBS, 0.19 µM	112	112	–
RPMI 5 mM glucose + 10% dialyzed FBS, 0.569 µM	113	117	–
RPMI 5 mM glucose + 10% dialyzed FBS, 1.71 µM	111	118	–
RPMI 5 mM glucose + 10% dialyzed FBS, 5.12 µM	109	116	–
RPMI 5 mM glucose + 10% dialyzed FBS, 15.4 µM	106	114	–
RPMI 5 mM glucose + 10% dialyzed FBS, 46.1 µM	104	105	–
